We go through five substances from patent US7223856B2, “Antisense compounds which prevent cell death and uses thereof” (The Trustees of Columbia University in the City of New York, priority 1997, dated 2007).

Data set [1] relates to Nedd2. Description: Western blot of Nedd2 in PC12 cell lysates. In kind it is cell-based, rat. The source says: The cells were extracted in sample buffer, the extracts boiled and equal amounts of protein resolved by 10% SDS-PAGE and transferred to nitrocellulose. Blots were probed with (FIG. 3A) anti-N-Nedd at 1:500 or (FIG. 3B) anti-C-Nedd at […] and staining visualized with ECL. Bands were quantified using Scion Image® software and normalized against peripherin levels. The level of down-regulation is representative of that obtained in 5 independent experiments.
PC12 cells grown with or without V-ANedd or V-SNedd were harvested in SDS-containing sample buffer and immediately boiled. Equal amounts of protein were separated by 10% PAGE, transferred to nitrocellulose and immunostained as described (Troy et al., 1992). The affinity purified anti-N-Nedd2 was used at a dilution of 1:500. The commercial antiserum, Nedd2 p12 C20 (Santa Cruz Biotechnology), was used at a dilution of 1:350. Visualization was with ECL using goat-anti-rabbit peroxidase at 1:1000. The relative intensity of the protein bands were quantified using Scion Image 1.55® software and samples were normalized by stripping and reprobing the blots with anti-peripherin antibody.

Data set [2] concerns naive PC12 cells. Description: Survival of naive PC12 cells after serum deprivation (intact nuclei count). In kind it is cell-based, rat. Conditions: for protection from death caused by serum deprivation: additive at time of plating in serum-free medium, 24 hours.
Method: (FIG. 4B) Dose-response curve for protection from serum deprivation by V-ANedd. PC12 cells were washed for trophic factor deprivation and plated in serum-free medium with the indicated concentrations of V-ANedd. Cell survival relative to the number present with the addition of NGF was measured at one day.
PC12 cells were grown as previously described (Greene and Tischler, 1976) on rat-tail collagen-coated dishes in RPMI 1640 medium containing 5% fetal calf serum and 10% heat-inactivated horse serum (complete medium). […] For cell survival assays involving trophic factor deprivation, cells (either naive or NGF-pretreated) were extensively washed in serum-free RPMI 1640 medium and re-plated on fresh collagen-coated 24-well dishes as previously described (Rukenstein et al., 1991) in RPMI 1640 medium lacking serum or NGF. […] Various concentrations of V-ANedd (vector linked antisense oligonucleotide to Nedd2) were included in the medium as indicated. Numbers of viable cells per culture were determined by quantifying intact nuclei as previously described (Rukenstein et al., 1991). Counts were performed in triplicate and reported as means ±SEM.
The test system of data set [3] is Nedd2. Description: Nedd2 immunofluorescence staining of PC12 cells with anti-N-Nedd2. Conditions: 400 nM, 24 hours, naive and neuronal PC12 cells. It counts as cell-based, rat. Here is the method:
Naive and neuronally differentiated PC12 cells (pretreated for at least 7 days with NGF, nerve growth factor) were plated on Matrigel coated multichamber slides. V-ANedd (400 nM) was added to the indicated cultures after plating. Naive cultures were grown in RPMI 1640 medium with 5% FCS and 10% horse serum; neuronal cultures were grown in RPMI 1640 medium with 1% horse serum and NGF (100 ng/ml). After overnight maintenance, cells were fixed in ice cold methanol and then immunostained with anti-N-Nedd.
PC12 cells were plated on coverslips or on 8 well multichamber slides (LabTek, VWR), coated with Matrigel®. After growth overnight, cells were fixed in ice cold methanol and then immunostained as described (Troy et al., 1990). The primary antibody was either affinity purified antibody Anti-N-Nedd2 or Nedd2 p12 C20 (Santa Cruz Biotechnology) at a dilution of 1:200. The secondary antibody was fluoroscein isothiocyanate-conjugated goat anti-rabbit (Cappel, Durham, N.C.) at 1:100. For visualization with a Nikon® fluorescence microscope slides were coverslipped with Aqua-mount®. Confocal microscopy was done on a BioRad® 600 confocal microscope.

For another data set, the system named is CPP-32. Description: Western blot of the same samples probed with anti-CPP32. In kind it is cell-based, rat. Conditions: blots of the same samples probed with anti-CPP32.
Data set [4] deals with sympathetic neurons. Briefly: Survival of sympathetic neurons after NGF deprivation. It counts as cell-based, rat. The following applies: for survival: single addition at time of NGF withdrawal. The procedure: (FIG. 6A) V-ANedd protects sympathetic neurons from NGF-withdrawal. At the time of NGF deprivation, V-ANedd (400 nM) was added to the cultures as indicated. Numbers of surviving neurons were determined at the indicated times as described in Experimental Procedures hereinbelow and are reported as relative to the number present in each culture at the time of NGF withdrawal.
(§1) Sympathetic neuron cultures were prepared from 2 day old rat pups, as previously described (Ferrari et al., 1995). Cultures were grown in 24-well collagen coated dishes in RPMI 1640 medium plus 10% horse serum with mouse NGF (100 ng/ml). One day following plating, uridine and 5-fluorodeoxyuridine (10 μM each) were added to the cultures and left for three days to eliminate non-neuronal cells. On the sixth day following plating NGF was removed by washing the cultures three times with RPMI 1640 medium plus 10% horse serum, followed by the addition of medium containing anti-mouse NGF (1:200, Sigma, St. Louis, Mo.) with or without V-ANedd. Each culture was scored, as previously described (Rydel and Greene, 1988), as numbers of living, phase-bright neurons at various times. Three replicate cultures were assessed for each condition and data are normalized to numbers of neurons present in each culture at the time of NGF withdrawal and reported as mean ±SEM.

The subject of data set [5] is PC12 cells. Briefly: Survival of PC12 cells after SOD1 down-regulation by V-ASOD1. In kind it is cell-based, rat. The procedure:
(FIG. 4A) V-ANedd differentially protects PC12 cells from serum deprivation. For serum deprivation (4 left-hand bars) cells were extensively washed as described in Experimental Procedures hereinbelow and the indicated additives (100 ng/ml NGF, 400 nM V-ANedd, or 200 nM V-ICEinh were added at the time of plating in serum-free RPMI1640 medium. For SOD1 down-regulation (4 right-hand bars), PC12 cells were re-plated on fresh collagen-coated 24-well dishes in complete medium (RPMI 1640 medium with 10% horse serum, 5% fetal bovine serum) with 50 nM V-ASOD1 (vector linked antisense oligonucleotide to SOD1). Additives (800 nM V-ANedd, 25 nM V-ICEinh) were included as indicated. Control cells were in complete medium. Cultures were incubated for 24 hours, lysed and number of intact nuclei counted. The numbers of surviving cells are expressed relative to the number in the control cultures (designated as 100). […] Experiments were performed in triplicate wells and data are expressed as means ±SEM.
PC12 cells were grown as previously described (Greene and Tischler, 1976) on rat-tail collagen-coated dishes in RPMI 1640 medium containing 5% fetal calf serum and 10% heat-inactivated horse serum (complete medium). […] Numbers of viable cells per culture were determined by quantifying intact nuclei as previously described (Rukenstein et al., 1991). […]

The subject of data set [6] is neuronally differentiated PC12 cells. Description: Survival of neuronally differentiated PC12 cells after SOD1 down-regulation. It counts as cell-based, rat. Conditions: 50 nM V-ASOD1. The procedure: (§2) (FIG. 5A) V-ANedd differentially protects neuronally differentiated PC12 cells from apoptosis caused by NGF withdrawal. PC12 cells were neuronally differentiated by exposure to NGF (100 ng/ml) for at least 7 days in RPMI 1640 medium plus 1% horse serum. Cells were deprived of serum and NGF and re-plated as described in FIGS. 4A–C. Additives present at the time of plating included 400 nM V-ANedd, 400 nM V-ICEinh or 100 ng/ml NGF (4 left-hand bars). For SOD1 down-regulation (4 right-hand bars) neuronally differentiated PC12 cells were plated in RPMI 1640 medium plus 1% horse serum, with 100 ng/ml NGF. At the time of plating, cultures were incubated, as indicated, with 50 nM V-ASOD1 and with the indicated additives (800 nM V-ANedd, 50 nM V-ICEinh). Cell survival was determined after one day and expressed as in FIGS. 4A–C.
(§3) PC12 cells were grown as previously described (Greene and Tischler, 1976) on rat-tail collagen-coated dishes in RPMI 1640 medium containing 5% fetal calf serum and 10% heat-inactivated horse serum (complete medium). NGF primed (neuronally differentiated) PC12 cells were grown for at least 7 days in RPMI 1640 medium plus 1% horse serum and NGF (100 ng/ml). […] Numbers of viable cells per culture were determined by quantifying intact nuclei as previously described (Rukenstein et al., 1991). […]

Data set [7] shares this test system. Briefly: Survival of neuronally differentiated PC12 cells after NGF withdrawal. It counts as cell-based, rat. The procedure:
as §2
(FIG. 5B) Dose-response curve for protection from NGF deprivation by V-ANedd. Neuronally differentiated PC12 cells were washed as above for NGF deprivation and plated in serum-free medium with the indicated concentrations of V-ANedd. Cell survival relative to the number present with the addition of NGF was quantified at one day.
(FIG. 5C) V-ANedd provides long term protection against NGF deprivation. Neuronally differentiated PC12 cells were deprived of NGF and serum and plated as described in FIG. 5A. V-ANedd (400 nM) was included at the time of NGF deprivation and replenished 1 day later. Cell survival was determined at the indicated times as in FIGS. 4A–C.
as §3

The test system of data set [8] is sympathetic neurons. Briefly: Sympathetic neuron death by SOD1 down-regulation and nitric oxide generation (V-ASOD1 + SNAP). In kind it is cell-based, rat. Conditions: V-ASOD1 50 nM, SNAP 100 μM, with NGF. Here is the method: Sympathetic neurons, after 6 days in culture, were maintained with NGF (100 ng/ml) and mixtures of the following additives as indicated: V-ASOD1 (50 nM), SNAP (100 μM) and V-ANedd (400 nM). Numbers of surviving neurons were determined at the indicated times as above.
as §1

The next data set has as its system IL-1β. Briefly: IL-1β release from PC12 cells by ELISA. Conditions: 50 nM V-ASOD1, 800 nM V-ANedd, 20 hours. It counts as cell-based, rat. Here is the method:
PC12 cells were plated with the indicated additives (50 nM V-ASOD1, 25 nM V-ICEinh, 800 nM V-ANedd). Controls contained complete medium. After 20 hours, media were removed and IL-1β was measured by ELISA using the Intertest-1βX® kit. Data are expressed as means ±SEM (n=3).
IL-1β was quantified by ELISA using the Intertest-1βX® kit (Genzyme, Cambridge, Mass.) as previously described (Troy et al., 1996b). PC12 cells were grown as described above, on 24-well plates, in 500 μl of medium. After one day incubation, medium was removed and IL-1β measured following the manufacturer's instructions, and number of viable cells in each well quantified.
(ELISA stands for enzyme-linked immunosorbent assay.)

A further data set concerns Jurkat cells. Description: Anti-Fas mediated death of Jurkat cells. It counts as cell-based, human. The following applies: dose-dependent, FIG. 8. From the text:
FIG. 8. […] V-ICH is an antisense oligonucleotide having an antisense sequence of human Ich, specifically V-AICH has the sequence of Seq ID No. 2.
• 1. […] Beta-amyloid peptide mediates apoptosis in PC12 cells. This apoptosis can be abrogated by down-regulation of Nedd2. Clinical Relevance of Antisense Oligonucleotides.

For data set [9], the system named is PC12 cells. Conditions: PC12 cells and sympathetic neurons, Troy et al., 1996b; cited from earlier work.
Data set [10] deals with naive PC12 cells. Conditions: PC12 cells and sympathetic neurons, Troy et al., 1996b; cited from earlier work.

Regarding “V-SNedd: control scrambled oligonucleotide CCGTAGCGTAGCTCCGCCTGC (SEQ ID NO:5) linked to vector peptide Penetratin 1 (linked to vector peptide Penetratin 1, further chemistry not given here) [reference compound]”, the “down-regulation of Nedd2 bands (in words)” value with Nedd2 [1] (control oligonucleotide, Western blot) was “did not down-regulate any of the bands”. For the same substance, the “protection from death caused by serum deprivation” value (shortened to “protection from death caused”) with naive PC12 cells [2] is on record as “no effect on survival or death”. For the same substance, in the data set on Nedd2 [3], the “anti-N-Nedd2 staining (immunohistochemistry)” value is reported as “no change in staining”.

As for NGF: nerve growth factor, in the data set with naive PC12 cells [2], the “protection from death caused” value is on record as “promotes survival of all cells initially plated”.

Regarding “V-ANedd: Penetratin1-linked antisense oligonucleotide to Nedd2, GCTCGGCGCCGCCATTTCCAG (SEQ ID NO:1) (Penetratin1 peptide conjugated, oligonucleotide chemistry not given here)”, the “down-regulation of CPP-32” value in the data set with CPP-32 is reported as “no down-regulation of CPP-32”. Moreover, the “maintenance of neurites of NGF-deprived neurons” value with sympathetic neurons [4] (400 nM, NGF-free medium with anti-NGF) is “did not maintain the neurites”. Besides, the survival result in the data set on sympathetic neurons [4] (after 4 days) is “over 60%”; in the data set with sympathetic neurons [4] (at 8 days) it was 25%. Also, the “down-regulation of major band and minor Nedd2 bands” value in the data set with Nedd2 [1] (18–22 hours treatment, n=4) is listed as 60–70%. For the same substance, the “down-regulation of Nedd2 in the presence of V-ASOD1” value with Nedd2 [1] (in the presence of V-ASOD1) is given as “did down-regulate Nedd2”. Moreover, in the data set on PC12 cells [5] (naive PC12 cells, 50 nM V-ASOD1, V-ANedd up to 800 nM), the “protection from SOD1 down-regulation” value is recorded as “no protection from SOD1 down-regulation”. Also, in the data set with PC12 cells [5] (pretreatment with V-ANedd), the “protection from SOD1 down-regulation after pretreatment” value is recorded as “without effect”. Further, the “protection from down-regulation of SOD1” value in data set [6] is “not from down-regulation of SOD1”. Further, in [7] (morphology, 400 nM, 24 hr), the “NGF-like flattening of naive PC12 cells or neurite outgrowth from neuronally-differentiated cells” value is given as “did not mimic the actions of NGF”. The “protection from apoptosis caused by NGF withdrawal” value in data set [7] (neuronally differentiated PC12 cells, one day) is on record as “protected neuronally differentiated PC12 cells from apoptosis caused by NGF withdrawal”. Besides, in data set [7] (two successive additions (at NGF deprivation and one day later), through 4 days), the survival of cells entry was “greater than 75%”. Also, the “effect on sympathetic neuron death evoked by V-ASOD1+SNAP” value with sympathetic neurons [8] is “without effect”. Besides, the “concentration of maximal protection” value with naive PC12 cells [2] (added at the same time as serum withdrawal) was 400 nM. The “protection from death caused” value in the data set with naive PC12 cells [2] was “protects naive PC12 cells from death caused by serum deprivation”. Further, the “concentration of maximal survival after pretreatment” value in the data set with naive PC12 cells [2] (pretreatment for 4 hours with 50 nM V-ANedd) stood at 100 nM. The “anti-N-Nedd2 staining (immunohistochemistry)” value in the data set on Nedd2 [3] is on record as “decreased to almost undetectable levels”. Also, the “IL-1β release after exposure to ASOD1” value in the data set on IL-1β is on record as “did not affect IL-1β release”.

As for “V-AICH: antisense oligonucleotide having an antisense sequence of human Ich, Seq ID No. 2 (GTCAGCGGCCATCAGCTT) (linked to vector peptide (Penetratin1), oligo chemistry not given here)”, in the data set with Jurkat cells, the “protection from anti-Fas mediated death” value is “protect from anti-Fas mediated death in a dose-dependent manner”.

Regarding IL-1Ra: IL-1 receptor antagonist, in the data set on PC12 cells [9], the “apoptosis following SOD1 down-regulation (literature)” value is listed as “suppressed”. Besides, the “death caused by trophic factor/NGF withdrawal (literature)” value with naive PC12 cells [10] is “little or no effect”.
